pIC50: −log10 of the molar value.
Tested on: 873145-292-R-J1-PDC complex spheroid viability
Assay: Anticancer human tumor 873145-292-R-J1-PDC patient-derived renal clear cell carcinoma cell line growth inhibition [POLQ]
Conditions: for pIC50: curve of first compound; for viability, T/C: stronger effect = lower value
In short: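 Complex spheroid viability model combining PDC tumour cells with endothelial (HUVEC) and MSC stromal cells. Novobiocin, ART-558 or RP6685 were tested singly and in combination with standard and investigational anticancer drugs. Each was titrated in half-log steps from near clinical Cmax, or from 10 microM where Cmax was unknown.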

[1] = second compound 0.0316 µM, first compound 0.0316 µM
[2] = second compound 0.0316 µM, first compound 0.1 µM
[3] = second compound 0.0316 µM, first compound 0.316 µM
[4] = second compound 0.0316 µM, first compound 1 µM
[5] = second compound 0.0316 µM, first compound 3.16 µM
[6] = second compound 0.0316 µM, first compound 10 µM
[7] = second compound 0.1 µM, first compound 0.0316 µM
[8] = second compound 0.1 µM, first compound 0.1 µM
[9] = second compound 0.1 µM, first compound 0.316 µM
[10] = second compound 0.1 µM, first compound 1 µM
[11] = second compound 0.1 µM, first compound 3.16 µM
[12] = second compound 0.1 µM, first compound 10 µM
[13] = second compound 0.316 µM, first compound 0.0316 µM
[14] = second compound 0.316 µM, first compound 0.1 µM
[15] = second compound 0.316 µM, first compound 0.316 µM
[16] = second compound 0.316 µM, first compound 1 µM
[17] = second compound 0.316 µM, first compound 3.16 µM
[18] = second compound 0.316 µM, first compound 10 µM
[19] = second compound 1 µM, first compound 0.0316 µM
[20] = second compound 1 µM, first compound 0.1 µM
[21] = second compound 1 µM, first compound 0.316 µM
[22] = second compound 1 µM, first compound 1 µM
[23] = second compound 1 µM, first compound 3.16 µM
[24] = second compound 1 µM, first compound 10 µM
[25] = second compound 3.16 µM, first compound 0.0316 µM
[26] = second compound 3.16 µM, first compound 0.1 µM
[27] = second compound 3.16 µM, first compound 0.316 µM
[28] = second compound 3.16 µM, first compound 1 µM
[29] = second compound 3.16 µM, first compound 3.16 µM
[30] = second compound 3.16 µM, first compound 10 µM
[31] = second compound 10 µM, first compound 0.0316 µM
[32] = second compound 10 µM, first compound 0.1 µM
[33] = second compound 10 µM, first compound 0.316 µM
[34] = second compound 10 µM, first compound 1 µM
[35] = second compound 10 µM, first compound 3.16 µM
[36] = second compound 10 µM, first compound 10 µM
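Also: spheroids exposed to compounds for 7 days before viability readout.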
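For viability, T/C in this document: luminescence signal used as surrogate for viable cell content; 100% = DMSO vehicle control viability.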

For CC(C)n1c(=O)n(C)c2cnc3cc(F)c(-c4ccc(OCCCN5CCCCC5)nc4)cc3c21 + Cc1cccc(N(C)C(=O)C2C(O)CCN2c2nc(C)cc(C(F)(F)F)c2C#N)c1, the pIC50 (second compound 0.0316 µM) was less than 5.00, the pIC50 (second compound 0.1 µM) was less than 5.00 and the pIC50 (second compound 0.316 µM) was less than 5.00. The pIC50 (second compound 1 µM) was less than 5.00, the pIC50 (second compound 3.16 µM) was less than 5.00 and the pIC50 (second compound 10 µM) was less than 5.00. The viability, T/C [1] was 84.6%, the viability, T/C [2] was 102% and the viability, T/C [3] was 96.9%. The viability, T/C [4] was 100%, the viability, T/C [5] was 89.2% and the viability, T/C [6] was 78.1%. The viability, T/C [7] was 94.7%, the viability, T/C [8] was 103% and the viability, T/C [9] was 100%. The viability, T/C [10] was 90.4%, the viability, T/C [11] was 85.9% and the viability, T/C [12] was 76.4%. The viability, T/C [13] was 105%, the viability, T/C [14] was 99% and the viability, T/C [15] was 79.7%. It also gave a viability, T/C [16] of 99.8%, a viability, T/C [17] of 98.8% and a viability, T/C [18] of 73.3%. The viability, T/C [19] was 106%, the viability, T/C [20] was 106% and the viability, T/C [21] was 102%. It also gave a viability, T/C [22] of 91.8%, a viability, T/C [23] of 89.2% and a viability, T/C [24] of 72.4%. It also gave a viability, T/C [25] of 91%, a viability, T/C [26] of 91.8% and a viability, T/C [27] of 114%. For the same compound, the viability, T/C [28] was 101%, the viability, T/C [29] was 107% and the viability, T/C [30] was 69.4%. For the same compound, the viability, T/C [31] was 88.8%, the viability, T/C [32] was 98.6% and the viability, T/C [33] was 104%. The viability, T/C [34] was 90.2%, the viability, T/C [35] was 87.8% and the viability, T/C [36] was 66.4%.

Work on CC1COCCN1c1cc(-c2ccnn2C)c2ccnc(-c3ccn[nH]3)c2n1 (stereo unspecified) + Cc1cccc(N(C)C(=O)C2C(O)CCN2c2nc(C)cc(C(F)(F)F)c2C#N)c1 yielded a pIC50 (second compound 0.0316 µM) of 5.97, a pIC50 (second compound 0.1 µM) of 5.80 and a pIC50 (second compound 0.316 µM) of 5.81. The pIC50 (second compound 1 µM) was 5.82, the pIC50 (second compound 3.16 µM) was 6.01 and the pIC50 (second compound 10 µM) was 6.05. It also gave a viability, T/C [1] of 90.6%, a viability, T/C [2] of 79.1% and a viability, T/C [3] of 68.1%. For the same compound, the viability, T/C [4] was 46.1%, the viability, T/C [5] was 48.6% and the viability, T/C [6] was 43.1%. It also gave a viability, T/C [7] of 99.3%, a viability, T/C [8] of 87.7% and a viability, T/C [9] of 74.3%. It also gave a viability, T/C [10] of 54.5%, a viability, T/C [11] of 39.9% and a viability, T/C [12] of 45.4%. The viability, T/C [13] was 95.1%, the viability, T/C [14] was 90.6% and the viability, T/C [15] was 69%. It also gave a viability, T/C [16] of 53.3%, a viability, T/C [17] of 47% and a viability, T/C [18] of 36.1%. It also gave a viability, T/C [19] of 92.3%, a viability, T/C [20] of 80.5% and a viability, T/C [21] of 67.7%. For the same compound, the viability, T/C [22] was 50.4%, the viability, T/C [23] was 46.6% and the viability, T/C [24] was 44.4%. The viability, T/C [25] was 101%, the viability, T/C [26] was 88% and the viability, T/C [27] was 71.4%. For the same compound, the viability, T/C [28] was 47%, the viability, T/C [29] was 44.1% and the viability, T/C [30] was 40.5%. It also gave a viability, T/C [31] of 91.6%, a viability, T/C [32] of 82.9% and a viability, T/C [33] of 69%. It also gave a viability, T/C [34] of 46.5%, a viability, T/C [35] of 42% and a viability, T/C [36] of 40.2%.

In the case of CC1COCCN1c1cc(C2(S(C)(=N)=O)CC2)nc(-c2ccnc3[nH]ccc23)n1 (stereo unspecified) + Cc1cccc(N(C)C(=O)C2C(O)CCN2c2nc(C)cc(C(F)(F)F)c2C#N)c1, the pIC50 (second compound 0.0316 µM) was less than 5.00, the pIC50 (second compound 0.1 µM) was less than 5.00 and the pIC50 (second compound 0.316 µM) was less than 5.00. It also gave a pIC50 (second compound 1 µM) of less than 5.00, a pIC50 (second compound 3.16 µM) of less than 5.00 and a pIC50 (second compound 10 µM) of less than 5.00. The viability, T/C [1] was 98.1%, the viability, T/C [2] was 102% and the viability, T/C [3] was 101%. It also gave a viability, T/C [4] of 95.4%, a viability, T/C [5] of 83.6% and a viability, T/C [6] of 64.5%. The viability, T/C [7] was 104%, the viability, T/C [8] was 98.5% and the viability, T/C [9] was 90.1%. The viability, T/C [10] was 102%, the viability, T/C [11] was 75.1% and the viability, T/C [12] was 59.4%. For the same compound, the viability, T/C [13] was 115%, the viability, T/C [14] was 96.6% and the viability, T/C [15] was 98.8%. For the same compound, the viability, T/C [16] was 87.1%, the viability, T/C [17] was 92% and the viability, T/C [18] was 60.1%. The viability, T/C [19] was 101%, the viability, T/C [20] was 99.3% and the viability, T/C [21] was 93.5%. It also gave a viability, T/C [22] of 96%, a viability, T/C [23] of 75.3% and a viability, T/C [24] of 54.5%. The viability, T/C [25] was 99.4%, the viability, T/C [26] was 99.6% and the viability, T/C [27] was 99.6%. The viability, T/C [28] was 87.2%, the viability, T/C [29] was 77.4% and the viability, T/C [30] was 55.4%. For the same compound, the viability, T/C [31] was 90.8%, the viability, T/C [32] was 96.3% and the viability, T/C [33] was 98.4%. The viability, T/C [34] was 91.5%, the viability, T/C [35] was 64.9% and the viability, T/C [36] was 68.8%.

— PubChem BioAssay AID1963834 (Molecular Pharmacology Branch, DTP, NCI, 2024)
